Holding throughout (assay): CDK enzymology experiment in vitro, capillary mobility shift assay (MSA)
What all share (type): biochemical

For one experiment, the target named is T1, CDK4 (Homo sapiens, UniProt P11802).
T1 construct: purchased Carna Company
Conditions: read-out: CDK4 (nM) inhibitory IC50. In outline: (§1)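 Recombinant kinases tested against peptide substrates in 1× kinase buffer, with compound added as a 100-fold DMSO stock. Top concentration 1, 10 or 30 μM, 3-fold dilutions over 10 points, in duplicate. Substrate conversion read by Caliper EZ Reader, normalised to no-enzyme and no-compound controls, and IC50 fitted with a variable-slope log(inhibitor)–response model.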

Another experiment has as its target T2, CDK2 (Homo sapiens, UniProt P24941).
T2 construct: purchased Carna Company
Particulars: read-out: CDK2 (nM) inhibitory IC50. In outline: as §1

Another experiment concerns the target T3, CDK6 (Homo sapiens, UniProt Q00534).
T3 construct: purchased Carna Company
The method, then:
CDK1/CDK2/CDK4/CDK6/CDK7/CDK9 were purchased from Carna Company; Carliper substrate CTD3/substrate 18/substrate 8 were purchased from Gil Biochemical Company; Dinaciclib/Palbociclib were purchased from Selleckchem Company; DMSO was purchased from Sigma Company; 384-well plates were purchased from Corning Company.
• (1) Preparation of 1×Kinase buffer. • (2) Preparation of compound concentration gradient: Test concentration of the test compound was started at 1 μM, 10 μM or 30 μM, 3-fold dilution, 10 concentrations, detected in duplicate. […] Liquid handler Echo 550 was used to transfer 250 nL of 100-fold final concentration of the compound to the target plate 384-well plate. […] The 384-well plate was centrifuged at 1000 rpm for 30 seconds, and shaken to mix uniformly. • (10) The conversion rate was read with Caliper EZ Reader.
Where, conversion %_sample is the readings of conversion rate of the sample; conversion %_min: the average value of negative control wells, representing the readings of conversion rate of wells without enzyme activity; conversion %_max: the average value of positive control wells, representing the readings of conversion rate of wells without compound inhibition.
Taking the log value of the concentration as the X-axis, and the percentage inhibition rate as the Y-axis, the dose-effect curve was fitted using the log(inhibitor) vs. response—Variable slope of the analysis software GraphPad Prism 5 so as to obtain the IC50 value of each compound on the enzyme activity.
Y=Bottom+(Top−Bottom)/(1+10^((Log IC50−X)*HillSlope)). Calculation formula: […]

[1] abbreviates: read-out: CDK6 (nM) inhibitory IC50.

This passage reports IC50 results from patent US20250009745A1, “CDK INHIBITOR” (SHANGHAI QILU PHARMACEUTICAL RESEARCH AND DEVELOPMENT …, priority 2021, published 2025).

Where two headings read alike, the source gives them in different places.

T3 sequence (Q00534 whole entry): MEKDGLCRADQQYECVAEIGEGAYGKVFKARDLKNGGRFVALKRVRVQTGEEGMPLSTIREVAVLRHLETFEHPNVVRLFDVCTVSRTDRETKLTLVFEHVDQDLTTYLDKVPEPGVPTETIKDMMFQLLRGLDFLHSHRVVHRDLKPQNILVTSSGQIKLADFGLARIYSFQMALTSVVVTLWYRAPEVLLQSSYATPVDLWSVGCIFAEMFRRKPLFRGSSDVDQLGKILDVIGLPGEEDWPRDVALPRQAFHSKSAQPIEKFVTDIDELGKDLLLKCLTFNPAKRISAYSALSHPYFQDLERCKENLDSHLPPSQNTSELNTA
T3 sequence (P30281 whole entry partner): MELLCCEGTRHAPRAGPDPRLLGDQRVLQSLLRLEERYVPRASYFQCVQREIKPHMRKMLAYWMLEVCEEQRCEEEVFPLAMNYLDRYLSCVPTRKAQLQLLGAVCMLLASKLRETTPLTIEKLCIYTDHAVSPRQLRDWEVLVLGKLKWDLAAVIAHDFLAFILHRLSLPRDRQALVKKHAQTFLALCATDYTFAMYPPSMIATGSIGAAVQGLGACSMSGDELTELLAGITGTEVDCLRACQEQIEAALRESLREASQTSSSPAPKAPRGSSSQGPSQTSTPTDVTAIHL
T1 sequence (P11802 whole entry): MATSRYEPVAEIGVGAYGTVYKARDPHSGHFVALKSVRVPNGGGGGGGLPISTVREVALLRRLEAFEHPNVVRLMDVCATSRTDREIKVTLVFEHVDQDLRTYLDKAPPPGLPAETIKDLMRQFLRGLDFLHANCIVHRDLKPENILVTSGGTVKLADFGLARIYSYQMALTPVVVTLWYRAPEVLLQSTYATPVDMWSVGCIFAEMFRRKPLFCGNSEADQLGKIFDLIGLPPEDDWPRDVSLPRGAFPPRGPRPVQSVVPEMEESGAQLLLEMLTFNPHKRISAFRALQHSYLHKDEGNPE
T1 sequence (P30281 whole entry partner): as the sequence (P30281 whole entry partner) above

In the case of `Cn1cc(S(=O)(=O)N2CCC(Nc3ncc(C#N)c(NC4(C)CCCC4)n3)CC2)cn1` [Compound 118], the IC50 on CDK4, at CDK2 and at CDK6 (setting [1]) was 0.5 to 2.5 nM each time.
As for `Cn1cc(S(=O)(=O)N2CCC(Nc3ncc(C#N)c(OC4CCCC4)n3)CC2)cn1` [Example 6, 4-(Cyclopentyloxy)-2-((1-((1-methyl-1H-pyrazol-4-yl)sulfonyl)piperidin-4-yl)amino)pyrimidine-5-carbonitrile], the IC50 on CDK4 is 2.5 to 10 nM; on CDK2, < 0.5 nM; at CDK6 (setting [1]) it was 0.5 to 2.5 nM.
On to `Cn1cc(-c2ccc(S(=O)(=O)N3CCC(Nc4ncc(C#N)c(N[C@H]5CC[C@@H](O)C5)n4)CC3)cc2)cn1` (single isomer, unassigned) [Compound 86], for which the results for the IC50 at CDK4, at CDK2 and on CDK6 (setting [1]) were 0.5 to 2.5 nM, < 0.5 nM and 0.5 to 2.5 nM, respectively.
`O=S(=O)(c1ccc(N2CCNCC2)c(F)c1)N1CCC(Nc2ncc(C(F)(F)F)c(O[C@H]3CCOC3)n2)CC1` [Compound 172]: the IC50 at CDK4, at CDK2 and at CDK6 (setting [1]) was 0.5 to 2.5 nM throughout.
Consider `O=S(=O)(c1cnn(C2CCNCC2)c1)N1CCC(Nc2ncc(C(F)(F)F)c(O[C@H]3CCOC3)n2)CC1` [Compound 119], for which the values for the IC50 on CDK4, on CDK2 and on CDK6 (setting [1]) were 0.5 to 2.5 nM, < 0.5 nM and 0.5 to 2.5 nM, respectively.
`Cc1cc(S(=O)(=O)N2CCC(Nc3ncc(C(F)(F)F)c(O[C@H]4CCOC4)n3)CC2)ccc1C1CCCNC1` (stereo partly drawn) [Compound 192]: the IC50 at CDK4 was 0.5 to 2.5 nM; on CDK2 it was < 0.5 nM; at CDK6 (setting [1]) it was 0.5 to 2.5 nM.
As for `C[C@@H]1CN(c2ccc(S(=O)(=O)N3CCC(Nc4ncc(C(F)(F)F)c(O[C@H]5CCOC5)n4)CC3)cn2)CCN1` [Compound 187], the IC50 is 0.5 to 2.5 nM at CDK4, < 0.5 nM on CDK2 and 0.5 to 2.5 nM on CDK6 (setting [1]).
Consider `O=S(=O)(c1ccc(C2=CCNCC2)c(F)c1)N1CCC(Nc2ncc(C(F)(F)F)c(O[C@H]3CCOC3)n2)CC1` [Compound 121], for which the IC50 is 0.5 to 2.5 nM at CDK4, < 0.5 nM at CDK2 and 0.5 to 2.5 nM at CDK6 (setting [1]).
Consider `O=S(=O)(c1ccc(N2CCNC(C(F)(F)F)C2)nc1)N1CCC(Nc2ncc(C(F)(F)F)c(O[C@H]3CCOC3)n2)CC1` (stereo partly drawn) [Compound 167], for which the IC50 at CDK4, on CDK2 and at CDK6 (setting [1]) was 0.5 to 2.5 nM each time.
For the molecule `O=S(=O)(c1cccc(N2CCNCC2)c1)N1CCC(Nc2ncc(C(F)(F)F)c(O[C@H]3CCOC3)n2)CC1` [Compound 184], the results for the IC50 on CDK4, at CDK2 and at CDK6 (setting [1]) were 2.5 to 10 nM, < 0.5 nM and 10 to 50 nM, respectively.
For `O=S(=O)(c1ccc(N2CC3CNCC3C2)cc1)N1CCC(Nc2ncc(C(F)(F)F)c(O[C@H]3CCOC3)n2)CC1` (stereo partly drawn) [Compound 191], the IC50 at CDK4 is 0.5 to 2.5 nM; at CDK2 it was < 0.5 nM; at CDK6 (setting [1]), 0.5 to 2.5 nM.
As to `CN1CCN(c2ccc(S(=O)(=O)N3CCC(Nc4ncc(C#N)c(NC5CCCC5)n4)CC3)cc2)CC1` [Example 18, 4-(Cyclopentylamino)-2-((1-((4-(4-methylpiperazin-1-yl)phenyl)sulfonyl)piperidin-4-yl)amino)pyrimidine-5-carbonitrile], the IC50 on CDK4, on CDK2 and on CDK6 (setting [1]) was 0.5 to 2.5 nM throughout.
Turning to `O=S(=O)(c1ccc(C2=CCNCC2)nc1)N1CCC(Nc2ncc(C(F)(F)F)c(O[C@H]3CCOC3)n2)CC1` [Compound 173], the IC50 at CDK4 was 0.5 to 2.5 nM; at CDK2 it was < 0.5 nM; at CDK6 (setting [1]), 0.5 to 2.5 nM.
`O=S(=O)(c1ccc(N2CC3CCC(C2)N3)cc1)N1CCC(Nc2ncc(C(F)(F)F)c(O[C@H]3CCOC3)n2)CC1` [Compound 181]: the IC50 on CDK4 is 0.5 to 2.5 nM; at CDK2 it was < 0.5 nM; on CDK6, 0.5 to 2.5 nM.
As to `Cn1cc(-c2ccc(S(=O)(=O)N3CCC(Nc4ncc(C#N)c(N[C@@H]5CC[C@H](O)C5)n4)CC3)cc2)cn1` (single isomer, unassigned) [Compound 87], the IC50 at CDK4, on CDK2 and on CDK6 (setting [1]) was 0.5 to 2.5 nM in each case.

In general, IC50 refers to the midpoint of a concentration-inhibition curve.
